Measurements: the supplement of paper PMC10307832

What was measured:
Experiment in all cases: relative viability (nuclei count vs DMSO), 5 days (fraction); higher = more cells survive
NCI-H1666 = system: NCI-H1666
How it was run: (§1)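 Relative viability is defined as nuclei in treated wells over nuclei in vehicle wells. Duplicate plates were run and medians reported. Lung cancer cell lines in 1536-well plates were dosed by pin tool one day after seeding, with one drug or with a fixed anchor-drug dose plus five library-drug doses (not always all listed) in √10 steps, and nuclei were counted after 5 days.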

NCI-H1915 = system: NCI-H1915
How it was run: as §1

NCI-H596 = system: NCI-H596
How it was run: as §1

NCI-H2342 = system: NCI-H2342
How it was run: as §1

NCI-H23 = system: NCI-H23
How it was run: as §1

PC-3 [JPC-3] = system: PC-3 [JPC-3]
How it was run: as §1

NCI-H520 = system: NCI-H520
How it was run: as §1

NCI-H1437 = system: NCI-H1437
How it was run: as §1

NCI-H1650 = system: NCI-H1650
How it was run: as §1

NCI-H460 = system: NCI-H460
How it was run: as §1

EKVX = system: EKVX
How it was run: as §1

LCLC-97TM1 = system: LCLC-97TM1
How it was run: as §1

NCI-H727 = system: NCI-H727
How it was run: as §1

NCI-H1975 = system: NCI-H1975
How it was run: as §1

NCI-H322M = system: NCI-H322M
How it was run: as §1

NCI-H838 = system: NCI-H838
How it was run: as §1

NCI-H647 = system: NCI-H647
How it was run: as §1

SK-LU-1 = system: SK-LU-1
How it was run: as §1

NCI-H358 = system: NCI-H358
How it was run: as §1

NCI-H441 = system: NCI-H441
How it was run: as §1

NCI-H661 = system: NCI-H661
How it was run: as §1

SMILES: Cc1cn(-c2cc(NC(=O)c3ccc(C)c(Nc4nccc(-c5cccnc5)n4)c3)cc(C(F)(F)F)c2)cn1 [Nilotinib] + COc1cc2c(Oc3ccc(NC(=O)C4(C(=O)Nc5ccc(F)cc5)CC4)cc3F)ccnc2cc1OCCCN1CCOCC1 [Foretinib] (partner 0.25 µM)
- relative viability (NCI-H1666; first compound 0.001 µM): 0.929
- relative viability (NCI-H1666; first compound 0.003162 µM): 0.996
- relative viability (NCI-H1666; first compound 0.03162 µM): 0.911
- relative viability (NCI-H1666; first compound 0.1 µM): 1.07
- relative viability (NCI-H1915; first compound 0.001 µM): 0.966
- relative viability (NCI-H1915; first compound 0.003162 µM): 1.21
- relative viability (NCI-H1915; first compound 0.01 µM): 1.2
- relative viability (NCI-H1915; first compound 0.03162 µM): 0.983
- relative viability (NCI-H1915; first compound 0.1 µM): 0.952
- relative viability (NCI-H596; first compound 0.001 µM): 0.732
- relative viability (NCI-H596; first compound 0.003162 µM): 0.622
- relative viability (NCI-H596; first compound 0.01 µM): 0.729
- relative viability (NCI-H596; first compound 0.03162 µM): 0.937
- relative viability (NCI-H596; first compound 0.1 µM): 0.601
- relative viability (NCI-H2342; first compound 0.001 µM): 0.968
- relative viability (NCI-H2342; first compound 0.003162 µM): 1.1
- relative viability (NCI-H2342; first compound 0.03162 µM): 0.979
- relative viability (NCI-H2342; first compound 0.1 µM): 1
- relative viability (NCI-H23; first compound 0.001 µM): 1.06
- relative viability (NCI-H23; first compound 0.003162 µM): 1.13
- relative viability (NCI-H23; first compound 0.01 µM): 1.02
- relative viability (NCI-H23; first compound 0.03162 µM): 0.79
- relative viability (NCI-H23; first compound 0.1 µM): 0.658
- relative viability (PC-3 [JPC-3]; first compound 0.001 µM): 1.03
- relative viability (PC-3 [JPC-3]; first compound 0.003162 µM): 1.16
- relative viability (PC-3 [JPC-3]; first compound 0.01 µM): 1.25
- relative viability (PC-3 [JPC-3]; first compound 0.03162 µM): 0.967
- relative viability (PC-3 [JPC-3]; first compound 0.1 µM): 0.863
- relative viability (NCI-H520; first compound 0.001 µM): 0.757
- relative viability (NCI-H520; first compound 0.003162 µM): 1.03
- relative viability (NCI-H520; first compound 0.01 µM): 0.91
- relative viability (NCI-H520; first compound 0.03162 µM): 0.684
- relative viability (NCI-H520; first compound 0.1 µM): 0.688
- relative viability (NCI-H1437; first compound 0.001 µM): 1.2
- relative viability (NCI-H1437; first compound 0.003162 µM): 1.39
- relative viability (NCI-H1437; first compound 0.01 µM): 1.26
- relative viability (NCI-H1437; first compound 0.03162 µM): 1.03
- relative viability (NCI-H1437; first compound 0.1 µM): 1.27
- relative viability (NCI-H1650; first compound 0.001 µM): 1.09
- relative viability (NCI-H1650; first compound 0.003162 µM): 1.2
- relative viability (NCI-H1650; first compound 0.01 µM): 1.3
- relative viability (NCI-H1650; first compound 0.03162 µM): 1.09
- relative viability (NCI-H1650; first compound 0.1 µM): 1.3
- relative viability (NCI-H460; first compound 0.001 µM): 0.903
- relative viability (NCI-H460; first compound 0.003162 µM): 1.31
- relative viability (NCI-H460; first compound 0.01 µM): 1.17
- relative viability (NCI-H460; first compound 0.03162 µM): 0.66
- relative viability (NCI-H460; first compound 0.1 µM): 0.941
- relative viability (EKVX; first compound 0.001 µM): 0.726
- relative viability (EKVX; first compound 0.003162 µM): 1
- relative viability (EKVX; first compound 0.01 µM): 1.43
- relative viability (EKVX; first compound 0.03162 µM): 0.512
- relative viability (EKVX; first compound 0.1 µM): 0.187
- relative viability (LCLC-97TM1; first compound 0.001 µM): 0.902
- relative viability (LCLC-97TM1; first compound 0.003162 µM): 1.05
- relative viability (LCLC-97TM1; first compound 0.01 µM): 0.956
- relative viability (LCLC-97TM1; first compound 0.03162 µM): 0.883
- relative viability (LCLC-97TM1; first compound 0.1 µM): 0.885
- relative viability (NCI-H727; first compound 0.003162 µM): 1.16
- relative viability (NCI-H727; first compound 0.01 µM): 1
- relative viability (NCI-H727; first compound 0.03162 µM): 0.797
- relative viability (NCI-H727; first compound 0.1 µM): 0.79
- relative viability (NCI-H1975; first compound 0.001 µM): 0.956
- relative viability (NCI-H1975; first compound 0.003162 µM): 1.12
- relative viability (NCI-H1975; first compound 0.01 µM): 1.02
- relative viability (NCI-H1975; first compound 0.03162 µM): 0.74
- relative viability (NCI-H1975; first compound 0.1 µM): 0.957
- relative viability (NCI-H322M; first compound 0.001 µM): 1.01
- relative viability (NCI-H322M; first compound 0.003162 µM): 0.987
- relative viability (NCI-H322M; first compound 0.01 µM): 1.05
- relative viability (NCI-H322M; first compound 0.03162 µM): 0.956
- relative viability (NCI-H322M; first compound 0.1 µM): 1.07
- relative viability (NCI-H838; first compound 0.001 µM): 1.03
- relative viability (NCI-H838; first compound 0.003162 µM): 1.16
- relative viability (NCI-H838; first compound 0.01 µM): 1.27
- relative viability (NCI-H838; first compound 0.03162 µM): 0.91
- relative viability (NCI-H838; first compound 0.1 µM): 0.949
- relative viability (NCI-H647; first compound 0.001 µM): 1.09
- relative viability (NCI-H647; first compound 0.003162 µM): 1.16
- relative viability (NCI-H647; first compound 0.01 µM): 1.34
- relative viability (NCI-H647; first compound 0.03162 µM): 0.879
- relative viability (NCI-H647; first compound 0.1 µM): 0.86
- relative viability (SK-LU-1; first compound 0.001 µM): 0.745
- relative viability (SK-LU-1; first compound 0.003162 µM): 0.925
- relative viability (SK-LU-1; first compound 0.01 µM): 0.956
- relative viability (SK-LU-1; first compound 0.03162 µM): 0.691
- relative viability (SK-LU-1; first compound 0.1 µM): 0.666
- relative viability (NCI-H358; first compound 0.001 µM): 0.655
- relative viability (NCI-H358; first compound 0.003162 µM): 0.8
- relative viability (NCI-H358; first compound 0.01 µM): 0.818
- relative viability (NCI-H358; first compound 0.03162 µM): 0.446
- relative viability (NCI-H358; first compound 0.1 µM): 0.346
- relative viability (NCI-H441; first compound 0.001 µM): 0.878
- relative viability (NCI-H441; first compound 0.003162 µM): 1.26
- relative viability (NCI-H441; first compound 0.01 µM): 1.32
- relative viability (NCI-H441; first compound 0.03162 µM): 0.932
- relative viability (NCI-H441; first compound 0.1 µM): 0.805
- relative viability (NCI-H661; first compound 0.001 µM): 1.03
- relative viability (NCI-H661; first compound 0.003162 µM): 1.18
- relative viability (NCI-H661; first compound 0.03162 µM): 0.919
- relative viability (NCI-H661; first compound 0.1 µM): 0.9
